Assays:
[1] = molecular target: KOP receptor; settings: cited from earlier work
[2] = molecular target: T1, KOP receptors (Homo sapiens, UniProt P41145); assay: biochemical; type: biochemical
[3] = system: KOP receptor; settings: cited from earlier work; remark: listed apart in the source
[4] = molecular target: T1, KOP receptors; type: binding
[5] = system: serotonin 5HT2A receptors; settings: cited from earlier work
[6] = system: cocaine-induced drug-seeking; settings: rats; dose of 0.3 mg/kg or greater; cited from earlier work
[7] = system: humans; settings: vaporized and inhaled; cited from earlier work
[8] = molecular target: T1, KOP receptors; settings: cited from earlier work
[9] = system: KOP receptor; assay: Previously published potency/efficacy at KOP receptors; type: biochemical; settings: relative to 1

T1 sequence (P41145 whole entry): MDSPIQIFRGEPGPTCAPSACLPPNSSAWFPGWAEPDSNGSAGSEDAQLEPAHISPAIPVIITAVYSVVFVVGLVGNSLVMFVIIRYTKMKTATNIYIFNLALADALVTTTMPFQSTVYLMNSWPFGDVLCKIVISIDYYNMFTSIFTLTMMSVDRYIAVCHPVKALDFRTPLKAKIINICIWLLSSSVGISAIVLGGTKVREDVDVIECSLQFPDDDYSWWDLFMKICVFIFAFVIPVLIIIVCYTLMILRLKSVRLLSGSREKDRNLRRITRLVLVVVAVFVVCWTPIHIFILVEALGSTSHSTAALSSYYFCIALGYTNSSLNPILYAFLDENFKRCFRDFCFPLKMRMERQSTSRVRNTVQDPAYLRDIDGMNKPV

Q: With `CCNC(=O)O[C@H]1C[C@@H](C(=O)OC)[C@]2(C)CC[C@H]3C(=O)O[C@H](c4ccoc4)C[C@]3(C)[C@H]2C1=O` [Compound 12] as the compound, how does the EC50 ([1]; read-out: KOP receptor potency EC50) read?
A: > 1 µM

Q: For `COC(=O)[C@@H]1C[C@H](O[C@@H]2CCCCO2)C(=O)[C@H]2[C@@]1(C)CC[C@H]1C(=O)O[C@H](c3ccoc3)C[C@]21C` [Compound 5], which EC50 [2] is on record?
A: 0.06 ± 0.006 µM

Q: Which EC50 [2] does the source give for `CCOCO[C@H]1C[C@@H](C(=O)OC)[C@]2(C)CC[C@H]3C(=O)O[C@H](c4ccoc4)C[C@]3(C)[C@H]2C1=O` [Compound 4] here?
A: 0.00065 ± 0.00017 µM

Q: For `CCOC(=O)O[C@H]1C[C@@H](C(=O)OC)[C@]2(C)CC[C@H]3C(=O)O[C@H](c4ccoc4)C[C@]3(C)[C@H]2C1=O` [Compound 11], which “affinity at the KOP receptor vs. [3H]bremazocine” value ([3]; vs. [3H]bremazocine) is on record?
A: no appreciable affinity

Q: What about the “affinity at the KOP receptor vs. [3H]diprenorphine” value ([3]; vs. [3H]diprenorphine) of the same compound?
A: no appreciable affinity

Q: What does the source list for `COC(=O)[C@@H]1C[C@H](O[C@H]2CCCO2)C(=O)[C@H]2[C@@]1(C)CC[C@H]1C(=O)O[C@H](c3ccoc3)C[C@]21C` [Compound 7b]?
A: EC50 [2]: 0.69 ± 0.08 µM; fold less potent than 1 as agonist [2]: ~17 fold

Q: Which results are given for `COCO[C@H]1C[C@@H](C(=O)OC)[C@]2(C)CC[C@H]3C(=O)O[C@H](C(=O)N4CCCCC4)C[C@]3(C)[C@H]2C1=O` [Compound 14]?
A: EC50 [2]: 1.93 ± 0.239 µM; fold less potent than 1 as agonist [2]: 48 fold; fold less potent than 3 as agonist [2]: roughly 322 fold; improvement in potency over 15 [2]: approximately 2.5 fold; KOP binding affinity worse compared to 3 [4]: roughly 31 fold; KOP receptor binding affinity improved over that of 15 [4]: approximately 2 fold

Q: What does the source list for `COC(=O)[C@@H]1C[C@H](OC(C)=O)C(=O)[C@H]2[C@@]1(C)CC[C@H]1C(=O)O[C@H](c3ccoc3)C[C@]21C` [Compound 1, salvinorin A]?
A: activity at serotonin 5HT2A receptors [5]: does not have activity; effect on cocaine-primed reinstatement of drug seeking [6]: attenuate cocaine-primed reinstatement of drug seeking; active dose in humans (hallucinogen) [7]: 4.5 to 21 µg/kg; ED50 ± SD (κ) [8]: 0.04 ± 0.01 µM

Q: Which results are given for `COC(=O)[C@@H]1C[C@H](O[C@@H]2CCCO2)C(=O)[C@H]2[C@@]1(C)CC[C@H]1C(=O)O[C@H](c3ccoc3)C[C@]21C` [Compound 7a]?
A: EC50 [2]: 1.22 ± 0.23 µM; fold less potent than 1 as agonist [2]: approximately 30 fold

Q: Which “fold less potent than 1 as agonist (previously published analog)” value [9] does the source give for `COC(=O)[C@@H]1C[C@H](OC(C)=O)C(=O)[C@H]2[C@@]1(C)CC[C@H]1C(=O)O[C@H](C(=O)N3CCCCC3)C[C@]21C` [Compound 15, reference compound] here?
A: approximately 125 fold

Q: And the “potency at KOP receptors ED50” value [1]?
A: 5.11 ± 1.8 µM

From PMC3307802 (MedChemComm, 2011)
